Measured values reported in patent US10266511B2, “No-releasing nitrooxy-chromene conjugates” (priority 2014, dated 2019).

Tested on: PGE2 production
Assay: Rat air-pouch model for acute inflammation (exudate PGE2 by ELISA)
Format: in vivo, Sprague-Dawley rats
Settings: oral gavage 0.01 mmol/kg 2 h before carrageenan, exudate 4 h after carrageenan
Procedure: A study of chromene release is assessed by measurement of PGE2 levels, which are indicative of inflammatory response. Compounds of the present invention lower the inflammatory response by selective COX-2 inhibition, decreasing PGE-2 levels in patients.
Animals: Sprague-Dawley rats (Charles River Laboratories, R #3234, PO #738990, male, 160-180 g) are received, individually examined, and housed in cages of five rats each. The rats are ear notched for identification purposes.
Compounds and dosing solutions: The vehicle is prepared by dissolving 40 g (2-hydroxypropyl)-β-cyclodextrin (HP-β-CD, Sigma, Cat. 332593, lot MKBJ5858V) in 160 mL sterile saline for injection, USP (Hospira, lot 26-801-FW) making a 25% solution which is filter sterilized (0.2 μm, Nalgene, Cat. 151-4020, lot 1095610). A 1% carrageenan solution is prepared by dissolving 0.6 g λ-carrageenan (Fluka, Cat. 22049, lot 1318338) in hot 60 mL sterile saline for injection, USP. This solution is stored at 4-8° C. Test compounds are dissolved in DMSO (Fisher Scientific, Cat. D128-500, lot 874999) to make 75 mM stocks. 0.25 mL of compound DMSO stocks are mixed with 12.5 mL of HP-β-CD solution at 50° C. (maximum DMSO concentration is 2% of the final volume of vehicle,). […]
Day 6—Compound administration and carrageenan insult: At commencement of the study, each rat is weighed and sorted into treatment groups of 5 rats/group based upon average weight. […] The pouch is gently massaged, the exudate immediately removed, and exudate volume recorded. […]
Data analysis: The exudate samples are thawed to room temperature and assayed by ELISA for PGE2 (R&D Systems, Cat. KGE004B, lot 307711). Statistical significance of treatments on mean exudate volumes are determined by comparison of means for treatment groups with vehicle group. Mean cytokine concentrations and standard deviations are determined for each group. Statistical significance of treatments on cytokine concentrations are determined for each compound group compared to vehicle group. Statistical significance (p-value) is calculated vs control groups by Student's t-Test. […]

| Structure (SMILES) | % Inhibition of PGE2 production relative to control (+/−S.D.) |
| --- | --- |
| CC(C)(C)c1cc2c(cc1Cl)C=C(C(=O)OC(CO[N+](=O)[O-])CO[N+](=O)[O-])C(C(F)(F)F)O2 (stereo not drawn) [Example 22a, 1,3-bis(Nitrooxy)propan-2-yl 7-(tert-butyl)-6-chloro-2-(trifluoromethyl)-2H-chromene-3-carboxylate] | 75.4 (+/−9.1) % |
| CC(C)(C)c1cc2c(cc1Cl)C=C(C(=O)O[C@H]1CO[C@H]3[C@@H]1OC[C@H]3O[N+](=O)[O-])[C@@H](C(F)(F)F)O2 [Example 33, (S)-(3S,3aR,6R,6aS)-6-(nitrooxy)hexahydrofuro[3,2-b]furan-3-yl 7-(tert-butyl)-6-chloro-2-(trifluoromethyl)-2H-chromene-3-carboxylate] | 91.8 (+/−4.9) % |
| CC(C)(C)c1cc2c(cc1Cl)C=C(C(=O)O[C@H]1CO[C@H]3[C@@H]1OC[C@H]3O[N+](=O)[O-])C(C(F)(F)F)O2 (stereo partly drawn) [Example 33a, (3S,3aR,6R,6aS)-6-(nitrooxy)hexahydrofuro[3,2-b]furan-3-yl 7-(tert-butyl)-6-chloro-2-(trifluoromethyl)-2H-chromene-3-carboxylate] | 76.7 (+/−7.8) % |
